Assay results taken from patent US12018281B2, “Cardiomyocyte maturation promoter” (Kyoto University, priority 2018, dated 2024).

Assays:
[1] = tested on: cardiomyocytes derived from double knock-in human iPS cell lines (EmGFP at TNNI1, mCherry at TNNI3); experiment: TNNI3-mCherry reporter expression by anti-mCherry immunostaining and high contents screening (Experimental Example 1); format: cell-based; conditions: 1 μM test compound added on 3rd and 6th culture days, measured on 8th culture day; Alexa 647 (anti-mCherry); average of n=3; control well (no addition) 797
Experimental: (§1) For detection of cardiomyocyte maturation, double knock-in human iPS cell lines, in which reporter protein sequences, EmGFP (Sequence Number 1) and mCherry (Sequence Number 2) were inserted into gene loci for TNNI1 and TNNI3, respectively, were prepared (the human iPS cells were prepared from episomal vector (loaded gene; OCT3/4, KLF4, SOX2, L-MYC, LIN28, mouse p53DD) using PBMC (LP_167, Sample ID:20130318) purchased from CTL (reference literature; Okita K, et al. Stem Cells. 2012 Nov. 29. doi: 10.1002/stem.1293)).
(§2) The maintenance culture of the above-mentioned reporter iPS cell lines was carried out by a conventional method (Okita K, et al. Stem Cells. 2012 Nov. 29. doi: 10.1002/stem.1293).
For differentiation induction into cardiomyocytes, the reporter iPS cell lines were treated with 0.5×TrypLE select (Life Technologies, diluted in ½ with 0.5 mM EDTA/PBS) for 4 to 5 minutes, and the cells were exfoliated using a cell scraper (IWAKI), and then dissociated into the single cell by pipetting. The medium was removed by centrifugation (1,000 rpm, 5 min), and the obtained cells were seeded on a bioreactor (ABLE) by 1×10^7 cells per 30 mL of the bioreactor, and then cultured in a medium prepared by adding 1% L-glutamine, transferrin 150 μg/mL, ascorbic acid 50 μg/mL (Sigma), monothioglycerol 4×10^−4 M, 10 μM Rock inhibitor (Y-27632), 2 ng/mL BMP4 (R&D) and 0.5% Matrigel (Growth Factor Reduced) to a medium after removal of solution C from StemFit AK02 (AJINOMOTO AK02, 400 mL of solution A and 100 mL of B solution, total 500 mL), at 37° C., under 5% oxygen condition (55 rpm, stirred suspension culture method) to form embryoid bodies (0 day).
Next day (1st day), 9 μL (final concentration 3 ng/mL) of […], 15 μL (final concentration 5 ng/mL) of 10 μg/mL bFGF and […] (final concentration 10 ng/mL) of 10 μg/mL BMP4 were added to the bioreactor, and the cells were cultured at 37° C. for additional 2 days, under 5% oxygen condition.
Then (3rd day), the obtained embryoid bodies were collected in a 50 mL centrifuge tube, and then subjected to centrifugation (200 g, 1 min). The medium was removed, and the embryoid bodies were cultured in a medium prepared by adding 1% L-glutamine, transferrin 150 μg/mL, ascorbic acid 50 μg/mL (Sigma), monothioglycerol 4×10^−4 M, 10 ng/mL VEGF, 1 μM IWP-3, 0.6 μM dorsomorphin and 5.4 μM SB431542 to a medium after removal of solution C from StemFit AK02 (AJINOMOTO AK02, 400 mL of solution A and 100 mL of B solution, total 500 mL), at 37° C. for 3 days, under 5% oxygen condition (55 rpm, stirred suspension culture method).
Then (6th day), the bioreactor was left to stand to precipitate the embryoid bodies, and 80 to 90% of the medium was removed. A medium prepared by adding 1% L-glutamine, transferrin 150 μg/mL, ascorbic acid 50 μg/mL (Sigma), monothioglycerol 4×10^−4 M and 5 ng/mL VEGF to a medium after removal of solution C from StemFit AK02 (AJINOMOTO AK02, 400 mL of solution A and 100 mL of B solution, total 500 mL) was added to the bioreactor so that the total volume became 30 mL, and the embryoid bodies were cultured for 8 days, at 37° C., under 5% oxygen condition (55 rpm, stirred suspension culture method). During the culture, the medium was replaced with a medium under the same conditions every 2 to 3 days.
14th Day after the start of the differentiation induction, the embryoid bodies were treated with 2 mg/mL collagenase type I (Sigma) for 2 hr, and then with 0.25% trypsin/EDTA (Invitrogen) for 10 min. 50% FBS/IMDM (Thermo Fisher Science) was added thereto, and the embryoid bodies were dissociated into the single cell by pipetting, and then subjected to centrifugation (1,000 rpm, 5 minutes). […]

[2] = tested on: embryoid bodies/cardiomyocytes derived from double knock-in human iPS cell lines (EmGFP at TNNI1, mCherry at TNNI3); experiment: mCherry expression in TNNI1+ cells by flow cytometry (Experimental Example 2); format: cell-based; conditions: 40 nM, 10th to 16th day of differentiation, controls 7.4 (no addition), 10.2 (0.1% DMSO)
Experimental: as §1, §2
For differentiation induction into cardiomyocytes, the reporter iPS cell lines were treated with 0.5×TrypLE select (Life Technologies, diluted in ½ with 0.5 mM EDTA/PBS) for 4 to 5 minutes, and the cells were exfoliated using a cell scraper (IWAKI), and then dissociated into the single cell by pipetting. […]

With COc1ccc(/C=C\c2cc(OC)c(OC)c(OC)c2)cc1O [Example No. 1, 2-methoxy-5-((Z)-2-(3,4,5-trimethoxyphenyl)vinyl)phenol] the “average fluorescent intensity (at 1 μM)” value [1] was 1381.
In the case of CCn1nnc2cc(COC(=O)Nc3sc(-c4ccc(C)cc4OC)nc3C)ccc21 [Example No. 2, (1-ethyl-1H-benzotriazol-5-yl)methyl (2-(2-methoxy-4-methylphenyl)-4-methyl-1,3-thiazol-5-yl)carbamate], the “average fluorescent intensity (at 1 μM)” value [1] is reported as 1331 and the “mCherry+ (%)” value [2] is reported as 36.1%.
For CC[C@]1(O)C[C@H]2CN(CCc3c([nH]c4ccccc34)[C@@](C(=O)OC)(c3cc4c(cc3OC)N(C=O)[C@H]3[C@@](O)(C(=O)OC)[C@H](OC(C)=O)[C@]5(CC)C=CCN6CC[C@]43[C@@H]65)C2)C1 [Example No. 3, (2′beta)-22-oxovincaleukoblastine], the “average fluorescent intensity (at 1 μM)” value [1] was 1710.
In the case of Clc1ccc(CCc2nc3cc(-c4ccco4)cnc3[nH]2)cc1 [Example No. 4, 2-(2-(4-chlorophenyl)ethyl)-6-(2-furyl)-3H-imidazo[4,5-b]pyridine], the “average fluorescent intensity (at 1 μM)” value [1] is reported as 1125.
For COc1ccc(C[C@H](NC(=O)[C@H](C)NC(=O)CN2CCOCC2)C(=O)N[C@@H](Cc2ccccc2)C(=O)[C@]2(C)CO2)cc1 [Example No. 5, 4,5-anhydro-1,2-dideoxy-4-methyl-2-((N-(morpholin-4-ylacetyl)-L-alanyl-O-methyl-L-tyrosyl)amino)-1-phenyl-L-threo-pent-3-ulose], the “average fluorescent intensity (at 1 μM)” value [1] was 1791.
COc1cccc(-c2cc3ccc(N(C)C)cc3c(N)n2)c1 [Example No. 6, 3-(3-methoxyphenyl)-N7,N7-dimethylisoquinoline-1,7-diamine] was tested, and the “average fluorescent intensity (at 1 μM)” value [1] was 1305.
With COC(=O)c1c(C)[nH]c(C)c1C(=O)c1ccccc1Cc1ccccc1 [Example No. 7, methyl 4-(2-benzylbenzoyl)-2,5-dimethyl-1H-pyrrole-3-carboxylate] the “average fluorescent intensity (at 1 μM)” value [1] was 1294.
Nc1ccc(-c2nc3cc(-c4nc5cc(N)ccc5[nH]4)ccc3[nH]2)cc1 [Example No. 8, 2′-(4-aminophenyl)-1H,1′H-2,5′-bibenzimidazol-5-amine] was tested, and the “average fluorescent intensity (at 1 μM)” value [1] was 1150.
